Assay results taken from BindingDB's records for patent US20250313563 (The Broad Institute, 2025).
Where “and” joins values, the source holds several entries; their conditions need not be identical. Equal values may be shown once.

Assays:
[1] = target: Glycogen synthase kinase-3 beta (Homo sapiens, UniProt P49841); assay: TR-FRET Assay
Description: (§1) The assay was performed in a white, 384 well, low volume, flat bottom plate (Grenier). […] The kinase activity was quenched with 2 μL of 250 mM EDTA. A 10 μL volume of 40 nM Strepavidin-d2, 2 nM Tb2+-pSer641 antibody in TR-FRET Detection Buffer (Invitrogen) was then added.

[2] = target: Glycogen synthase kinase-3 alpha (Homo sapiens, UniProt P49840); assay: TR-FRET Assay
Description: as §1

Glycogen synthase kinase-3 beta, sequence (P49841 whole entry): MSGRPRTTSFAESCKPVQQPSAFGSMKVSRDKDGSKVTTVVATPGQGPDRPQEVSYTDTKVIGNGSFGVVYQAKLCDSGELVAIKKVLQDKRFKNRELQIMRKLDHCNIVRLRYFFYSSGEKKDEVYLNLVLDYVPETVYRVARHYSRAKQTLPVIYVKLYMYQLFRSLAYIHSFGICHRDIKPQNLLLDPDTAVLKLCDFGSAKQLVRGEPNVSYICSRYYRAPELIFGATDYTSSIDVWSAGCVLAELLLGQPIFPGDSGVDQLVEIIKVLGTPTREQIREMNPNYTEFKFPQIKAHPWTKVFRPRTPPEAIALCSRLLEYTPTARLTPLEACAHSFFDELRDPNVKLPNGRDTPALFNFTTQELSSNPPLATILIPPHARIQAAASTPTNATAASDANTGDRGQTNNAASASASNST
Glycogen synthase kinase-3 alpha, sequence (P49840 whole entry): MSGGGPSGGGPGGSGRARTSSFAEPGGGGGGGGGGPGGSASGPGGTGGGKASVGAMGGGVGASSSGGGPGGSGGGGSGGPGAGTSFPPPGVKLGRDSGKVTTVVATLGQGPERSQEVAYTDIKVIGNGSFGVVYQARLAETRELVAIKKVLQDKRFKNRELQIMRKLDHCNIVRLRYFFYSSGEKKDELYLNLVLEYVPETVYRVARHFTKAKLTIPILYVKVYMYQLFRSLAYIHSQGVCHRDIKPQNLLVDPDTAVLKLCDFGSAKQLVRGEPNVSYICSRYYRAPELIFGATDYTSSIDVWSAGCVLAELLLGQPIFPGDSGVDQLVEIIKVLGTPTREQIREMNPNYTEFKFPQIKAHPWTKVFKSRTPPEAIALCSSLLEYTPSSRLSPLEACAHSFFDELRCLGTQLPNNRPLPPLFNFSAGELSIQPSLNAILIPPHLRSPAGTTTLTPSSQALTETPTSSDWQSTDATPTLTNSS

IC50 [1] [nM] | IC50 [2] | SMILES
> 5000 | 1000 to 5000 nM | CC[C@@]1(c2cccc(-c3ccncn3)c2)C2=CN=NC2NC2=C1C(=O)CC(C)(C)C2 (stereo partly specified) [US20250313563, Compound 810489]
1000 to 5000 | 100 to 1000 nM | CC1(C)CC(=O)C2=C(C1)NC1=C(CN=N1)C21CCN(c2ccncn2)CC1 [US20250313563, Compound 874529]
< 100 | < 100 nM | CC1N=NC2=C1C1(CCCC1)C1=C(CC(C)(C)CC1=O)N2 (stereo unspecified) [US20250313563, Compound 786072]
1000 to 5000 | 100 to 1000 nM | CC[C@@]1(c2cccc(-c3c(F)cncc3OC)c2)C2=CN=NC2NC2=C1C(=O)CC(C)(C)[C@H]2F (stereo partly specified) [US20250313563, Compound 948547]
> 5000 | > 5000 nM | Cn1cc(CN2CC3(C2)C2=C(N=NC2)NC2=C3C(=O)CC(C)(C)C2)cn1 [US20250313563, Compound 929439]
100 to 1000 | 1000 to 5000 nM | CC(C)(C)CC1N=NC2=C1[C@](C)(c1cc(S(C)(=O)=O)ccc1F)C1=C(CC(C)(C)CC1=O)N2 (stereo partly specified) [US20250313563, Compound 125976]
1000 to 5000 | 100 to 1000 nM | CC[C@@]1(c2cccc(-c3cn(C)nc3C(C)C)c2)C2=CN=NC2NC2=C1C(=O)NC(C)(C)C2 (stereo partly specified) [US20250313563, Compound 949111]
< 100 | < 100 nM | CCC1(c2cccc(S(=O)(=O)CC3CC3)c2)C2=C(CC(C)(C)NC2=O)NC2=C1C(C(F)(F)F)N=N2 (stereo unspecified) [US20250313563, Compound 948179]
< 100 | < 100 nM | CC1(C)CC2=C(C(=O)C1F)[C@]1(CC[C@H](C(F)(F)F)CC1)C1=C(N=NC1)N2 (stereo partly specified) [US20250313563, Compound 917133]
100 to 1000 | 100 to 1000 nM | CC[C@]1(c2cccc(N3C[C@@H](C)[C@@H](C)C3)c2)C2=CN=NC2NC2=C1C(=O)CC(C)(C)C2 (stereo partly specified) [US20250313563, Compound 918326]
> 5000 | > 5000 nM | CC[C@@]1(c2cccc(C(F)(F)F)c2)C2=CN=NC2NC2=C1C(=O)N[C@@H](c1ccccc1)C2 (stereo partly specified) [US20250313563, Compound 945364]
100 to 1000 | < 100 nM | CC1=C2C(N=N1)NC1=C(C(=O)CC(C)(C)C1)C21CCCCC1 (stereo unspecified) [US20250313563, Compound 883865]
100 to 1000 | 100 to 1000 nM | CCC1(c2cccc(N3CCCCC3)c2)C2=CN=NC2NC2=C1C(=O)CC(C)(C)C2 (stereo unspecified) [US20250313563, Compound 801320]
100 to 1000 | < 100 nM | CCC1(c2cccc(-c3cn(C)nc3C)c2)C2=CN=NC2NC2=C1C(=O)NC1(CCS(=O)(=O)CC1)C2 (stereo unspecified) [US20250313563, Compound 950813]
– | 1000 to 5000 nM | CC[C@@]1(c2cccc(-c3cnn(C)c3)c2)C2=CN=NC2NC2=C1C(=O)CC(C)(C)[C@H]2F (stereo partly specified) [US20250313563, Compound 957510]
– | 1000 to 5000 nM | CC[C@]1(c2cccc(-c3ccnc(C)c3)c2)C2=CN=NC2NC2=C1C(=O)C[C@]1(CCOC1)C2 (stereo partly specified) [US20250313563, Compound 947412]
– | 1000 to 5000 nM | CCc1cccc(N(C)c2cccc([C@]3(CC)C4=CN=NC4NC4=C3C(=O)CC(C)(C)C4)c2)n1 (stereo partly specified) [US20250313563, Compound 945726]
– | 100 to 1000 nM | CC[C@]1(c2cccc(-c3c(F)cncc3OC)c2)C2=CN=NC2NC2=C1C(=O)NC(C)(C)C2 (stereo partly specified) [US20250313563, Compound 948145]
– | 100 to 1000 nM | CC[C@]1(c2cccc(-c3ccncc3C)c2)C2=CN=NC2NC2=C1C(=O)NC(C)(COC)C2 (stereo partly specified) [US20250313563, Compound 948127]

IC50 [1] [nM] | IC50 [2] | SMILES
– | 1790 nM and 13700 nM | CC(C)(C)CC1=C2C(N=N1)NC1=C(C(=O)CC(C)(C)C1)C21COC1 (stereo unspecified) [US20250313563, Compound 90709]
– | 1000 to 5000 nM | CC[C@@]1(c2cccc(-c3ccnc(C)c3)c2)C2=CN=NC2NC2=C1C(=O)CC(C)(C)C2 (stereo partly specified) [US20250313563, Compound 865170]
– | 1000 to 5000 nM | CC[C@]1(c2cccc(-c3c(F)cncc3F)c2)C2=CN=NC2NC2=C1C(=O)NC(C)(C)C2 (stereo partly specified) [US20250313563, Compound 948514]
– | 100 to 1000 nM | CC[C@]1(c2cccc(C(F)(F)F)c2)C2=CN=NC2NC2=C1C(=O)C[C@]1(CCN(C)C1=O)C2 (stereo partly specified) [US20250313563, Compound 950330]
– | 100 to 1000 nM | CC[C@]1(c2cccc(-c3ccncc3C)c2)C2=CN=NC2NC2=C1C(=O)NC1(CCOCC1)C2 (stereo partly specified) [US20250313563, Compound 948367]
– | 100 to 1000 nM | CC[C@]1(c2cccc(-c3ccnn3CCC(C)C)c2)C2=CN=NC2NC2=C1C(=O)CC(C)(C)C2 (stereo partly specified) [US20250313563, Compound 946096]
– | 1000 to 5000 nM | Cc1ccc(S(C)(=O)=O)cc1[C@]1(C)C2=C(CC(C)(C)CC2=O)NC2=C1C(CC(C)(C)C)N=N2 (stereo partly specified) [US20250313563, Compound 126397]
– | 1000 to 5000 nM | CC[C@]1(c2cccc(S(=O)(=O)C3CCCCC3)c2)C2=CN=NC2NC2=C1C(=O)CC(C)(C)C2 (stereo partly specified) [US20250313563, Compound 943547]
– | < 100 nM and 100 to 1000 nM | CC[C@@]1(c2cccc(-c3ccnc(C)c3)c2)C2=C(CC(C)(C)NC2=O)NC2N=NC(C(F)F)=C21 (stereo partly specified) [US20250313563, Compound 950163]
– | 1000 to 5000 nM | CC[C@@]1(c2cccc(-c3ccnc(C)c3)c2)C2=CN=NC2NC2=C1C(=O)N[C@]1(CCOC1)C2 (stereo partly specified) [US20250313563, Compound 948148]
– | 1000 to 5000 nM | CC[C@]1(c2cccc(-c3ccnc(C)c3)c2)C2=C(CC(C)(C)NC2=O)NC2N=NC(C(F)(F)F)=C21 (stereo partly specified) [US20250313563, Compound 948773]
– | 1000 to 5000 nM | CC[C@@]1(c2cccc(N3CCc4ccncc43)c2)C2=CN=NC2NC2=C1C(=O)CC(C)(C)C2 (stereo partly specified) [US20250313563, Compound 912004]
– | 100 to 1000 nM | CC[C@@]1(c2cccc(-c3ccnc(C)c3C)c2)C2=CN=NC2NC2=C1C(=O)CC(C)(C)C2 (stereo partly specified) [US20250313563, Compound 943517]
– | 100 to 1000 nM | CC[C@]1(c2cccc(S(=O)(=O)C3COC3)c2)C2=CN=NC2NC2=C1C(=O)CC(C)(C)C2 (stereo partly specified) [US20250313563, Compound 946003]
– | 1000 to 5000 nM | CC[C@@]1(c2cccc(C(F)(F)C(F)(F)F)c2)C2=CN=NC2NC2=C1C(=O)CC(C)(C)C2 (stereo partly specified) [US20250313563, Compound 949268]
– | 100 to 1000 nM | CC[C@@]1(c2cccc(-n3ccnc3)c2)C2=CN=NC2NC2=C1C(=O)CC(C)(C)C2 (stereo partly specified) [US20250313563, Compound 874533]
– | 1000 to 5000 nM | CC[C@]1(c2cccc(-c3ccnn3C)c2)C2=CN=NC2NC2=C1C(=O)N[C@@]1(CCCOC1)C2 (stereo partly specified) [US20250313563, Compound 948366]
– | 1000 to 5000 nM | CC[C@]1(c2cccc(-c3cc(C)ncc3F)c2)C2=CN=NC2NC2=C1C(=O)CC(C)(C)C2 (stereo partly specified) [US20250313563, Compound 927339]
– | 100 to 1000 nM | CC[C@]1(c2cccc([C@H]3CCOC(C)(C)C3)c2)C2=CN=NC2NC2=C1C(=O)CC(C)(C)C2 (stereo partly specified) [US20250313563, Compound 912088]

IC50 [1] [nM] | IC50 [2] | SMILES
– | 1000 to 5000 nM | CC[C@]1(c2cccc(-c3ccnn3C)c2)C2=CN=NC2NC2=C1C(=O)N[C@@](C)(COC)C2 (stereo partly specified) [US20250313563, Compound 947907]
– | 1000 to 5000 nM | CC[C@]1(c2cccc(C(F)(F)F)c2)C2=CN=NC2NC2=C1C(=O)N[C@@H](C(C)(C)C)C2 (stereo partly specified) [US20250313563, Compound 945921]
– | 100 to 1000 nM | CC[C@@]1(c2cccc(Oc3cncnc3)c2)C2=CN=NC2NC2=C1C(=O)CC(C)(C)C2 (stereo partly specified) [US20250313563, Compound 945939]
– | < 100 nM | COC(=O)C1CCC2(CC1)C1=C(N=NC1)NC1=C2C(=O)CC(C)(C)C1 (stereo unspecified) [US20250313563, Compound 918277]
– | 1000 to 5000 nM | CC[C@]1(c2cccc(-c3ccnn3C(C)C)c2)C2=CN=NC2NC2=C1C(=O)CC(C)(C)C2 (stereo partly specified) [US20250313563, Compound 946092]
– | 100 to 1000 nM | CC[C@@]1(c2cccc(-c3c(C)nn(C)c3C)c2)C2=CN=NC2NC2=C1C(=O)CC(C)(C)C2 (stereo partly specified) [US20250313563, Compound 911991]
– | < 100 nM and 100 to 1000 nM | Cn1ccc(S(=O)(=O)N2CCC3(CC2)C2=C(N=NC2)NC2=C3C(=O)NC(C)(C)C2)n1 [US20250313563, Compound 943961]
– | 100 to 1000 nM | CC[C@@]1(c2cccc(-c3cnn4c3CCCC4)c2)C2=CN=NC2NC2=C1C(=O)CC(C)(C)C2 (stereo partly specified) [US20250313563, Compound 945544]
– | 1000 to 5000 nM | CC[C@@]1(c2cccc(N3C[C@@H](C)[C@@H](C)C3)c2)C2=CN=NC2NC2=C1C(=O)CC(C)(C)C2 (stereo partly specified) [US20250313563, Compound 918327]
– | 1000 to 5000 nM | CC[C@]1(c2cccc(-c3ccnc(C)c3)c2)C2=CN=NC2NC2=C1C(=O)CC(C)(C)[C@@H]2F (stereo partly specified) [US20250313563, Compound 946101]
– | 100 to 1000 nM | CC[C@]1(c2cccc(-c3ccnc(C)c3)c2)C2=C(CC(C)(C)CC2=O)NC2N=NC(C)=C21 (stereo partly specified) [US20250313563, Compound 913051]
– | 1000 to 5000 nM | CC[C@]1(c2cccc(-c3ccn(C)n3)c2)C2=C(CC(C)(C)CC2=O)NC2N=NC(C)=C21 (stereo partly specified) [US20250313563, Compound 913039]
– | 1000 to 5000 nM | CC[C@]1(c2cccc(-c3ccncc3)c2)C2=CN=NC2NC2=C1C(=O)CC(C)(C)[C@H]2F (stereo partly specified) [US20250313563, Compound 959342]
– | < 100 nM and 100 to 1000 nM | CCC1(c2cccc(OCC(F)F)c2)C2=CN=NC2NC2=C1C(=O)CC(C)(C)C2 (stereo unspecified) [US20250313563, Compound 948793]
– | 100 to 1000 nM | CCn1nccc1-c1cccc([C@@]2(CC)C3=CN=NC3NC3=C2C(=O)CC(C)(C)C3)c1 (stereo partly specified) [US20250313563, Compound 946090]
– | 100 to 1000 nM | CC[C@]1(c2cccc(-c3ccnc(C(F)(F)F)c3)c2)C2=C(CC(C)(C)CC2=O)NC2N=NC(C)=C21 (stereo partly specified) [US20250313563, Compound 913049]
– | < 100 nM | CC[C@@]1(c2cccc(N(C)c3ncccn3)c2)C2=CN=NC2NC2=C1C(=O)CC(C)(C)C2 (stereo partly specified) [US20250313563, Compound 911981]
– | 1000 to 5000 nM | CC[C@@]1(c2cccc(-c3cn(C)nc3C)c2)C2=C(CC(C)(C)CC2=O)NC2N=NC(C)=C21 (stereo partly specified) [US20250313563, Compound 913034]
– | 1000 to 5000 nM | CC[C@]1(c2cccc(-c3cnn(CCOC)c3)c2)C2=CN=NC2NC2=C1C(=O)NC(C)(C)C2 (stereo partly specified) [US20250313563, Compound 949114]
